In brackets after ≈: the same amount, converted by molar mass. Where two headings read alike, the source gives them in different places.
Key:
[1] = tested on: Aspergillus niger; assay: MIC, Aspergillus niger (An), malt yeast agar; type: cell-based, Aspergillus niger ATCC 16404; details: 30° C., 72 hours (fungi), read-out: Minimum Inhibitory Concentration, An
Protocol: (§1) The minimum inhibitory concentration (MIC) for the compounds is determined for 9 bacteria, using nutrient agar, and 7 yeast and fungi, using malt yeast agar. A one percent solution of the test compound is prepared in a mixture of acetone and water. Nutrient agar is prepared at pH 6.8, representing a neutral medium, and at pH 8.2, representing an alkaline medium. The nutrient agars are prepared by adding 23 g of nutrient agar to one-liter of deionized water. In addition, the alkaline medium is prepared by adjusting a 0.04M solution of N-[tris-(hydroxymethyl)methyl]-glycine buffered deionized water with concentrated sodium hydroxide to a pH of […]. Malt yeast agar is prepared by adding 3 g yeast extract and 45 g malt agar per liter of dionized water. The specific agar is dispensed in 30 ml aliquots into 25×200 mm test tubes, capped and autoclaved for 15 minutes at 115° C. The test tubes containing the agar are cooled in a water bath until the temperature of the agar is 48 ° C. […]
(§2) The inoculation with the yeast and fungi is accomplished as follows. […] The petri plates are incubated at 30° C. and read after 48 hours for yeast and 72 hours for fungi. […]

[2] = tested on: Penicillium chrysogenum; assay: MIC, Penicillium chrysogenum (Pc), malt yeast agar; type: cell-based, Penicillium chrysogenum ATCC 9480; details: 30° C., 72 hours (fungi), read-out: Minimum Inhibitory Concentration, Pc
Protocol: as §1, §2

[3] = tested on: Trichoderma viride; assay: MIC, Trichoderma viride (Tv), malt yeast agar; type: cell-based, Trichoderma viride ATCC 8678; details: 30° C., 72 hours (fungi), read-out: Minimum Inhibitory Concentration, Tv
Protocol: as §1, §2

[4] = tested on: Saccharomyces cerevisiae; assay: MIC, Saccharomyces cerevisiae (Sc), malt yeast agar; type: cell-based, Saccharomyces cerevisiae ATCC 4105; details: 30° C., 48 hours (yeast), read-out: Minimum Inhibitory Concentration, Sc
Protocol: as §1, §2

[5] = tested on: Proteus vulgaris; assay: MIC, Proteus vulgaris (Pv), nutrient agar; type: cell-based, Proteus vulgaris ATCC 881; details: 30° C., 48 hours, read-out: Minimum Inhibitory Concentration, Pv
Protocol: as §1
(§3) The inoculated petri plates are incubated at 30° C. for 48 hours and then read to determine if the test compound which is incorporated into the agar prevented growth of the respective bacteria. […]

[6] = tested on: Candida albicans; assay: MIC, Candida albicans (Ca), malt yeast agar; type: cell-based, Candida albicans ATCC 10231; details: 30° C., 48 hours (yeast), read-out: Minimum Inhibitory Concentration, Ca
Protocol: as §1, §2

[7] = tested on: Bacillus subtilis; assay: MIC, Bacillus subtilis (Bs), nutrient agar; type: cell-based, Bacillus subtilis ATCC 8473; details: 30° C., 48 hours, read-out: Minimum Inhibitory Concentration, Bs
Protocol: as §1, §3

[8] = tested on: Enterobacter aerogenes; assay: MIC, Enterobacter aerogenes (Ea), nutrient agar; type: cell-based, Enterobacter aerogenes ATCC 13048; details: Klebsiella aerogenes, 30° C., 48 hours, read-out: Minimum Inhibitory Concentration, Ea
Protocol: as §1, §3

[9] = tested on: Aureobasidium pullulan; assay: MIC, Aureobasidium pullulan (Ap), malt yeast agar; type: cell-based, Aureobasidium pullulan ATCC 16622; details: 30° C., read after 48 hours for yeast and 72 hours for fungi, read-out: Minimum Inhibitory Concentration, Ap
Protocol: as §1, §2

[10] = tested on: Klebsiella pneumoniae; assay: MIC, Klebsiella pneumoniae (Kp), nutrient agar; type: cell-based, Klebsiella pneumoniae ATCC 8308; details: 30° C., 48 hours, read-out: Minimum Inhibitory Concentration, Kp
Protocol: as §1, §3

[11] = tested on: Pseudomonas aeruginosa (PRD-10); assay: MIC, Pseudomonas aeruginosa (PRD-10), nutrient agar; type: cell-based, Pseudomonas aeruginosa ATCC 15442; details: 30° C., 48 hours, read-out: Minimum Inhibitory Concentration, PRD
Protocol: as §1, §3

[12] = tested on: Escherichia coli; assay: MIC, Escherichia coli (Ec), nutrient agar; type: cell-based, Escherichia coli ATCC 11229; details: 30° C., 48 hours, read-out: Minimum Inhibitory Concentration, Ec
Protocol: as §1, §3

[13] = tested on: Salmonella choleraesuis; assay: MIC, Salmonella choleraesuis (Sc), nutrient agar; type: cell-based, Salmonella choleraesuis ATCC 10708; details: Salmonella enterica, 30° C., 48 hours, read-out: Minimum Inhibitory Concentration, Sc
Protocol: as §1, §3

[14] = tested on: Staphylococcus aureus; assay: MIC, Staphylococcus aureus (Sa), nutrient agar; type: cell-based, Staphylococcus aureus ATCC 6538; details: 30° C., 48 hours, read-out: Minimum Inhibitory Concentration, Sa
Protocol: as §1, §3

[15] = tested on: Fusarium oxysporum; assay: MIC, Fusarium oxysporum (Fo), malt yeast agar; type: cell-based, Fusarium oxysporum ATCC 48112; details: 30° C., 72 hours (fungi), read-out: Minimum Inhibitory Concentration, Fo
Protocol: as §1, §2

[16] = tested on: Pseudomonas aeruginosa; assay: MIC, Pseudomonas aeruginosa (Pa), nutrient agar; type: cell-based, Pseudomonas aeruginosa ATCC 10145; details: 30° C., 48 hours, read-out: Minimum Inhibitory Concentration, Pa
Protocol: as §1, §3

Which MIC [1] does the source give for `N#CSC=C(Cl)C#N` [3-Thiocyano-2-chloro-2-propenenitrile, 3-Thiocyano-2-Chloro-2-Propenenitrile] here?
Its MIC is 2.5 mg/L (≈ 17.3 µM).

What about the MIC [2] of the same molecule?
Its MIC is 2.5 mg/L (≈ 17.3 µM).

And the MIC [3]?
Its MIC is 5 mg/L (≈ 34.6 µM).

What about the MIC [4] of the same molecule?
Its MIC is 2.5 mg/L (≈ 17.3 µM).

And the MIC ([5]; pH 6.8, nutrient agar)?
Its MIC is 50 mg/L (≈ 346 µM).

What about the MIC ([5]; pH 8.2, nutrient agar) of the same molecule?
The MIC was over 500 mg/L.

And the MIC [6]?
The MIC was 2.5 mg/L (≈ 17.3 µM).

And the MIC ([7]; pH 6.8, nutrient agar)?
Its MIC is 25 mg/L (≈ 173 µM).

And the MIC ([7]; pH 8.2, nutrient agar)?
Its MIC is 500 mg/L (≈ 3460 µM).

And the MIC ([8]; pH 6.8, nutrient agar)?
Its MIC is 250 mg/L (≈ 1730 µM).

What about the MIC ([8]; pH 8.2, nutrient agar) of the same molecule?
The MIC was over 500 mg/L.

And the MIC [9]?
Its MIC is 2.5 mg/L (≈ 17.3 µM).

And the MIC ([10]; pH 6.8, nutrient agar)?
Its MIC is 100 mg/L (≈ 692 µM).

What about the MIC ([10]; pH 8.2, nutrient agar) of the same molecule?
Its MIC is 500 mg/L (≈ 3460 µM).

What about the MIC ([11]; pH 6.8, nutrient agar) of the same molecule?
The MIC was 250 mg/L (≈ 1730 µM).

What about the MIC ([11]; pH 8.2, nutrient agar) of the same molecule?
The MIC was over 500 mg/L.

What about the MIC ([12]; pH 6.8, nutrient agar) of the same molecule?
Its MIC is 100 mg/L (≈ 692 µM).

And the MIC ([12]; pH 8.2, nutrient agar)?
The MIC was over 500 mg/L.

And the MIC ([13]; pH 6.8, nutrient agar)?
The MIC was 100 mg/L (≈ 692 µM).

What about the MIC ([13]; pH 8.2, nutrient agar) of the same molecule?
The MIC was over 500 mg/L.

What about the MIC ([14]; pH 6.8, nutrient agar) of the same molecule?
Its MIC is 50 mg/L (≈ 346 µM).

And the MIC ([14]; pH 8.2, nutrient agar)?
The MIC was 500 mg/L (≈ 3460 µM).

What about the MIC [15] of the same molecule?
Its MIC is 2.5 mg/L (≈ 17.3 µM).

And the MIC ([16]; pH 6.8, nutrient agar)?
The MIC was 250 mg/L (≈ 1730 µM).

And the MIC ([16]; pH 8.2, nutrient agar)?
Its MIC is 500 mg/L (≈ 3460 µM).

From US5157051A, “Composition and use of 3-thiocyano-2-halo-2-propenenitriles as antimicrobial agents” (The Dow Chemical Company, priority 1992, dated 1992)
